# Source: ChEMBL document CHEMBL1127113, “Diaryl ether/carboxylic acid derivatives of LY255283: Receptor antagonists of leukotriene B4” (Bioorg Med Chem Lett, 1993)
# pIC50: −log10 of the molar value.
# Assays:
# Leukotriene B4 receptor = Leukotriene B4 receptor (Homo sapiens, UniProt Q9NPC1+Q15722); assay: Inhibition of specific binding of [3H]LTB4 to LTB4 receptor in human neutrophils; assay type: protein assay
# [1] = target: Leukotriene B4 receptor (Cavia porcellus); assay: Inhibition of specific binding of [3H]-LTB4 to LTB4 receptor in guinea pig lung membranes
# Homo sapiens = organism: Homo sapiens; assay: The compound was evaluated for its ability to inhibit LTB4-induced chemotaxis of human neutrophils; assay type: functional
SMILES,IC50 (Leukotriene B4 receptor) [nM],Ki [1] [nM],pIC50 (Homo sapiens)
CCc1cc(C(C)=O)c(O)cc1OCCCOc1ccc(Oc2ccc(C(=O)[O-])cc2)cc1.[Na+],190,90,
CCc1cc(C(C)=O)c(O)cc1OCCCOc1cccc(Oc2cccc(C(=O)[O-])c2)c1.[Na+],460,140,
CCCc1cc(Oc2ccc(C(=O)[O-])cc2)ccc1OCCCOc1cc(O)c(C(C)=O)cc1CC.[Na+],330,1200,
CCCc1c(OCCCOc2cc(O)c(C(C)=O)cc2CC)cccc1Oc1ccccc1C(=O)[O-].[Na+],24,39,6.10
CCCc1cc(Oc2cccc(C(=O)[O-])c2)ccc1OCCCOc1cc(O)c(C(C)=O)cc1CC.[Na+],160,256,
CCCc1c(OCCCOc2cc(O)c(C(C)=O)cc2CC)cccc1OCc1ccccc1C(=O)[O-].[Na+],130,244,5.92
CCCc1c(OCCCCOc2cc(O)c(C(C)=O)cc2CC)cccc1Oc1ccccc1C(=O)[O-].[Na+],94,59,5.51
CCc1cc(C(C)=O)c(O)cc1OCCCOc1cccc(Oc2ccccc2C(=O)[O-])c1.[Na+],290,130,
